According to US20080221132A1, “Multi-Functional Small Molecules as Anti-Proliferative Agents” (priority 2006, published 2008):

Key:
[1] = system: Breast_MCF7 (MCF-7, breast adenocarcinoma); experiment: Cell proliferation assay (ATPlite), MCF7; format: cell-based; conditions: Homo sapiens, TABLE C, 72 hours, 0.5% fetal bovine serum, ATP content, read-out: IC50 grading, Breast_MCF7
Description: (§1) A representative number of compounds were assayed against several different cell lines using the cell proliferation assay:
(§2) Cell Proliferation Assay:
(§3) Cancer cell lines were plated at 5,000 to 10,000 per well in 96-well flatted bottomed plates with various concentration of compounds. […] Growth inhibition was accessed by adenosine triphosphate (ATP) content assay using Perkin Elmer ATPlite kit. ATPlite is an ATP monitoring system based on firefly luciferase. Briefly, 25 μl of mammalian cell lysis solution was added to 50 μl of phenol red-free culture medium per well to lyse the cells and stabilize the ATP. 25 μl of substrate solution was then added to the well and subsequently the luminescence was measured.

[2] = system: Pancreas_HPAC; experiment: Cell proliferation assay (ATPlite), HPAC; format: cell-based; conditions: Homo sapiens, TABLE C, 72 hours, 0.5% fetal bovine serum, ATP content, read-out: IC50 grading, Pancreas_HPAC
Description: as §1, §2
(§4) Cancer cell lines were plated at 5,000 to 10,000 per well in 96-well flatted bottomed plates with various concentration of compounds. The cells were incubated with compounds for 72 hours in the presence of 0.5% of fetal bovine serum. Growth inhibition was accessed by adenosine triphosphate (ATP) content assay using Perkin Elmer ATPlite kit. ATPlite is an ATP monitoring system based on firefly luciferase. Briefly, 25 μl of mammalian cell lysis solution was added to 50 μl of phenol red-free culture medium per well to lyse the cells and stabilize the ATP. 25 μl of substrate solution was then added to the well and subsequently the luminescence was measured.

[3] = molecular target: FGFR2 Kinase (Homo sapiens, UniProt P21802); experiment: Kinase panel (TABLE F), FGFR2 Kinase; format: biochemical
Sequence of FGFR2 Kinase (P21802 22-821): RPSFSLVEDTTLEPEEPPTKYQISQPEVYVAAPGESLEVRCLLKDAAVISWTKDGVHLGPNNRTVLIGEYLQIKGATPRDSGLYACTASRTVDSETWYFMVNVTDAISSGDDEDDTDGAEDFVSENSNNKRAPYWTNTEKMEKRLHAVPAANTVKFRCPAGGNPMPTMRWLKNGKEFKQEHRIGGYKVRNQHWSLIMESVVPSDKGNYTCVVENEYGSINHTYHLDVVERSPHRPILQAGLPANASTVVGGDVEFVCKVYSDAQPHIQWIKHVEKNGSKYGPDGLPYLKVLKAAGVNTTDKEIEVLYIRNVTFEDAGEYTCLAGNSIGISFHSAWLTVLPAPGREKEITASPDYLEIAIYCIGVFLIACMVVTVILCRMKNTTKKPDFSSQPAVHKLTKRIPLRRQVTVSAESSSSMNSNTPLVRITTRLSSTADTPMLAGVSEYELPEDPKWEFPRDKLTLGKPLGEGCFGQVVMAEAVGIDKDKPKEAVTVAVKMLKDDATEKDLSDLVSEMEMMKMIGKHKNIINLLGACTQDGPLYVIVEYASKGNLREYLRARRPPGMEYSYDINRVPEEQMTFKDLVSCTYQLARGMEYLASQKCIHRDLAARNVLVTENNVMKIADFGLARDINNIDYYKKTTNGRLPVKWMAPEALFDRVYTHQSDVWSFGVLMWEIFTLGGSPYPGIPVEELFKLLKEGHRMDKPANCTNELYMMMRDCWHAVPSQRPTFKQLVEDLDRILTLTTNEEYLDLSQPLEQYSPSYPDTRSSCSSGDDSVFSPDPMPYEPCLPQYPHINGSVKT

[4] = system: Lung_H358; experiment: Cell proliferation assay (ATPlite), H358; format: cell-based; conditions: Homo sapiens, NCI-H358; TABLE C; 72 hours, 0.5% fetal bovine serum, ATP content; read-out: IC50 grading, Lung_H358
Description: as §1, §2, §4

[5] = system: Pancreas_BxPC3; experiment: Cell proliferation assay (ATPlite), BxPC3; format: cell-based; conditions: Homo sapiens, BXPC-3; TABLE C; 72 hours, 0.5% fetal bovine serum, ATP content; read-out: IC50 grading, Pancreas_BxPC3
Description: as §1, §2, §4

[6] = system: Lung_H1975; experiment: Cell proliferation assay (ATPlite), H1975; format: cell-based; conditions: Homo sapiens, NCI-H1975; TABLE C; 72 hours, 0.5% fetal bovine serum, ATP content; read-out: IC50 grading, Lung_H1975
Description: as §1, §2, §4

[7] = system: Lung_H2122; experiment: Cell proliferation assay (ATPlite), H2122; format: cell-based; conditions: Homo sapiens, NCI-H2122; TABLE C; 72 hours, 0.5% fetal bovine serum, ATP content; read-out: IC50 grading, Lung_H2122
Description: as §1, §2, §4

[8] = system: Colon_HCT116 (HCT116, colon cancer); experiment: Cell proliferation assay (ATPlite), HCT116; format: cell-based; conditions: Homo sapiens, HCT-116; TABLE C; 72 hours, 0.5% fetal bovine serum, ATP content; read-out: IC50 grading, Colon_HCT116
Description: as §1, §2, §3

C#Cc1cccc(Nc2ncnc3cc(OC)c(OCCCCCCC(=O)NO)cc23)c1 [Compound 12]
IC50 [1]: < 100 nM | IC50 [2]: 1000 to 10000 nM | inhibition at 5 µM [3]: 73% | IC50 [4]: 100 to 1000 nM | IC50 [5]: < 100 nM | IC50 [6]: 100 to 1000 nM | IC50 [7]: 100 to 1000 nM | IC50 [8]: 100 to 1000 nM
